Values of other authors, collected in patent US5849696A, “Composition and method of treating hepatitis C” (The Board of Governors of Wayne State University, priority 1993, dated 1998).
Where two headings read alike, the source gives them in different places. Where no end group is shown, it is not given here.

Assays:
HCV = conditions: in vivo
[1] = system: natural killer-cell activity; conditions: THNα1 together with interferon, immunosuppressed mice
[2] = system: Woodchuck Hepatitis Virus; conditions: woodchuck infected with Woodchuck Hepatitis Virus
hepatitis B virus (HBV) = conditions: treated for a year
[3] = system: nonsmall cell lung cancer
[4] = system: chronic hepatitis C (NANB hepatitis)

Molecule: Nc1nc2c(ncn2COCCO)c(=O)[nH]1 [acyclovir]
- effect on HCV-related diseases (HCV): ineffective

Molecule: Thymosin α-1 (SDAAVDTSSEITTKDLKEKKEVVEEAEN; ends and bridges not checked; UniProt P06454 2-29, looked up) [THNα1]
- effect on natural killer-cell activity [1]: synergistic effect
- interleukin-2 receptor expression (human lymphocytes): increase
- production of interferon-α, interferon-γ and interleukin-2 (human lymphocytes): promote production
- clinical or biochemical toxicity (influenza vaccine; drug recipients): No clinical or biochemical toxicity was observed
- levels of antibody to influenza (influenza vaccine; six weeks post-vaccine, subcutaneously twice weekly): higher levels of antibody to influenza than controls
- clinical parameters [2]: no improvement
- viral DNA replication [2]: suppressed viral DNA replication
- patients with reduced levels of serum HBV DNA (hepatitis B virus (HBV); pooled THNα1 (5 patients) and TF-5 (2 patients)): 6 of the 7
- patients initially positive for serum HBsAg who subsequently cleared this antigen (hepatitis B virus (HBV); pooled THNα1 and TF-5 patients): 5 of 6
- serum ALT (hepatitis B virus (HBV); THNα1 (5 patients) or TF-5 (2 patients)): marked decrease
- immune function ([3]; after radiotherapy): some restoration of radiation-suppressed immune function
- relapse-free survival and overall survival ([3]; both THNα1 treatment groups versus placebo group): greater
- T-cell numbers ([3]; human, in vivo): no increase

Molecule: interferon α
- mean serum ALT and histological features of the liver (chronic HCV infection; 2 MU subcutaneously three times weekly for six months): improved significantly
- complete response (decline in mean serum ALT to the normal range during therapy) (chronic HCV infection; 2 MU subcutaneously three times weekly for six months, ten of twenty-one patients): 48%
- further patients with decrease in mean ALT of more than 50% (chronic HCV infection; 2 MU three times weekly for six months): three
- patients still with normal serum ALT values (chronic HCV infection; six to twelve months after discontinuation of therapy, two patients): 10%
- relapse within six months after the completion of treatment ([4]; 1 MU): 44%
- serum ALT response ([4]; 1 MU three times weekly for 24 weeks, nine of sixteen patients): 56%
- liver histology ([4]; 3 MU): histologic improvement
- relapse within six months after the completion of treatment ([4]; 3 MU): 51%
- serum ALT level became completely normal ([4]; 3 MU three times weekly for 24 weeks, 22 of the 26 patients who responded): 85%
- mean serum ALT levels during the 24 week treatment period (chronic NANB hepatitis; 1 MU three times a week): decreased
- proportion of patients with normal ALT levels (chronic NANB hepatitis; at 24 weeks, 1 MU group): 45%
- proportion of patients with normal ALT levels (chronic NANB hepatitis; at 24 weeks, 3 MU group): 39%
- proportion of patients with normal ALT levels (chronic NANB hepatitis; at week 48, 1 MU group): 20%
- proportion of patients with normal ALT levels (chronic NANB hepatitis; at week 48, 3 MU group): 28%
- repeat liver biopsy, severity of histological changes (chronic NANB hepatitis; higher dose group (3 MU)): significant decrease in the severity of histological changes
- relapse in disease activity when interferon was stopped (chronic NANB hepatitis; responders): approximately half of the responders
